Results taken from article PMC8838631, “Pistacia lentiscus L. Distilled Leaves as a Potential Cosmeceutical Ingredient: Phytochemical Characterization, Transdermal Diffusion, and Anti-Elastase and Anti-Tyrosinase Activities” (Molecules, 2022).
≈ marks a conversion by molar mass, not a printed value. Read-outs that look alike come from different tables or passages of the source.

How the values were obtained:
[1] = DPPH radical scavenging assay
Procedure: The DPPH scavenging test was carried out using the method mentioned by Brand-Williams et al.. The percentage of DPPH scavenging was measured using Equation (1): % DPPH scavenging = (ODcontrol − ODsample)/ODcontrol × 100(1)

[2] = target: porcine pancreatic elastase (Sus scrofa, UniProt P00772); test: Elastase inhibition assay (N-succinyl-Ala-Ala-Ala-p-nitroanilide substrate); type: biochemical; conditions: for remaining activity at 100 µg/mL: read-out: Elastase activity (% of control)
Procedure: The elastase inhibition activity of EAE and its pure molecules FC and FM2 was evaluated at different concentrations ranging from 12 to 100 µg/mL. […] At a concentration of 100 µg/mL, the percentages of elastase activity with EAE, FC, and FM2 were equal to 12%, 42%, and 29%, respectively. Besides, the percentage of elastase activity with Epigallocatechin gallate was 8%.
The elastase inhibitory effect of our samples was evaluated as described by Angelis et al., using the enzyme porcine pancreatic elastase and the substrate N-succinyl-Ala-Ala-Ala-p-nitroanilide. The extract and the pure molecules were evaluated at concentrations ranging between 12 and 100 µg/mL. Epigallocatechin gallate was used as a positive control. The elastase inhibition was measured using Equation (3):% Elastase inhibition = (ODcontrol − ODsample) ODcontrol × 100(3)

[3] = target: T1, cellular tyrosinase in B16 cells (Mus musculus, UniProt P11344); test: Cellular tyrosinase activity assay on B16 cells; type: cell-based
T1 sequence (P11344 19-533): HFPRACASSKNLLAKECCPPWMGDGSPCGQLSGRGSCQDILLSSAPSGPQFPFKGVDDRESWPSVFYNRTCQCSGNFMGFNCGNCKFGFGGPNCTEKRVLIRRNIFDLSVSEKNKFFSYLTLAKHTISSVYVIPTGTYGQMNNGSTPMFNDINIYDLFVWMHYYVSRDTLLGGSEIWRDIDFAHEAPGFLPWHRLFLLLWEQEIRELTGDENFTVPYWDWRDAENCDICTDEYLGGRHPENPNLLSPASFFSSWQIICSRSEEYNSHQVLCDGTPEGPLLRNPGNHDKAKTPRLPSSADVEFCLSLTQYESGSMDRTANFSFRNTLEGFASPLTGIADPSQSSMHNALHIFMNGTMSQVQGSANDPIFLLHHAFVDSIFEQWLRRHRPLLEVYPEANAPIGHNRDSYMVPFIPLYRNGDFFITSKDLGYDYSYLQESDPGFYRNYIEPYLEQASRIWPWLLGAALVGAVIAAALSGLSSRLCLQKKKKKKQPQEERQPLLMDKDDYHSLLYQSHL
Procedure: The cellular tyrosinase inhibition activity on B16 cells was evaluated using EAE, FC, and FM2.
(§1) B16 cells (C57BL/6, Resource No. RBRC-RCB0557) used in this study were prepared as described by Elloumi et al..
The cellular tyrosinase activity on B16 cells was evaluated as described by Kamei et al. with some modifications. Briefly, B16 cells were incubated in a 96-well plate (25 × 10^3 cells/well) for 24 h. […] After that, the cells were washed with PBS and lysed with PBS supplemented with 1% of Triton-X/PBS, after 48 h of samples exposure. A volume of 100 µL of 0.1% L-DOPA was added to the wells for 1 h. […] The cellular tyrosinase inhibition was measured as follows:% Cellular tyrosinase inhibition = (ODcontrol − ODsample)/ODcontrol × 100(5)

[4] = Transdermal diffusion, Franz diffusion cell with strat-M membrane; type: in vitro ADME; conditions: 5% EAE-hydro-cream, 24 h of incubation; for µg of Crossed Molecule/g of 5% Hydro-cream: strat-M membrane, 37 °C, mean ± SD (n = 9)
Procedure: The transdermal diffusion of 5% EAE-hydro-cream formulation was evaluated using Franz diffusion cell and start-M membrane. […] The receptor medium of the Franz cell was analyzed by HPLC-MS to determine the bioactive compounds that crossed the strat-M membrane after 24 h of incubation. […] The bioactive molecules FC and FM2 that crossed the strat-M membrane were subjected to quantification. […] Moreover, FC has crossed the membrane but with a lower concentration than FM2 (Table 4).
Transdermal diffusion was evaluated using a Franz diffusion cell system, as mentioned by Chuang et al. with certain modifications. Firstly, the start-M membrane, a model membrane for transdermal diffusion, was mounted in a Franz diffusion cell. Then, 5 mL of 0.1 M sodium phosphate buffer (PBS) and 1 g of extract formulation cream were placed in the receptor and the donor compartments, respectively. The extract formulation cream was prepared by mixing the hydro-cream base emulsion purchased from Galderma and the EAE at 5% (w/w) by a mechanical stirrer (VMI Rayneri, Francelab, Paris, France). The receptor medium of the Franz cell was maintained at 37 °C and stirred with a magnetic stirrer at 400 rpm. After 24 h, the receptor medium was recovered, evaporated, freeze-dried, and then 4 mL of MeOH was added. The sample was filtered through a 0.45 filter and analyzed by HPLC-MS to determine the bioactive molecules that were released from the start-M membrane. The bioactive molecules that crossed the start-M membrane were then quantified, as described in Section 4.4.6, by injecting the receptor medium through HPLC-DAD at a concentration of 10 mg/mL. Results were expressed as µg of molecule crossed the membrane/g of 5% EAE-hydro-cream.

B16 cells = test: Cell viability / cytotoxicity, MTT assay; conditions: B16 cells, MTT; viability above 70% considered non-toxic (ISO 10993-5)
Procedure: (§2) The cell viability of EAE and the two major isolated molecules FC and FM2 were evaluated against B16 cells.
as §1
(§3) The MTT assay was performed to evaluate the cytotoxicity effect of our samples on B16 cells. Different sample concentrations (2.5–80 µg/mL) were applied to the Cells. The […] was measured as follows:% Cell viability = (ODsample/ODcontrol) × 100(4)

[5] = Cell viability / cytotoxicity, MTT assay; conditions: mouse
Procedure: as §2, §1, §3

mushroom tyrosinase = test: Tyrosinase inhibition assay (L-DOPA substrate); type: biochemical; conditions: for IC50 of tyrosinase activity: L-DOPA; for Tyrosinase activity (% of control): at a concentration of 100 µg/mL
Procedure: EAE and its pure molecules FC and FM2 were evaluated in vitro for their tyrosinase inhibition activity.
The inhibitory effect of our samples on the mushroom tyrosinase enzyme was analyzed using the substrate L-DOPA [71]. The extract and the pure molecules were evaluated at concentrations ranging between 12 and 200 µg/mL. […] The tyrosinase inhibition was measured as follows:% Tyrosinase inhibition = (ODcontrol − ODsample)/ODcontrol × 100(2)

[6] = at a concentration of 100 µg/mL

porcine pancreatic elastase, sequence (P00772 27-266): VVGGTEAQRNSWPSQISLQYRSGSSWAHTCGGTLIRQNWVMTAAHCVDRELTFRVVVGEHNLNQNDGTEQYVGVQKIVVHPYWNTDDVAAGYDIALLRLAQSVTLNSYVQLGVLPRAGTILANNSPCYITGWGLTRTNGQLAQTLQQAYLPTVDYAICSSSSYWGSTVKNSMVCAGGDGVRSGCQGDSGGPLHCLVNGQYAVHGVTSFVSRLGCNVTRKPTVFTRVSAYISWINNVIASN

SMILES: O=C1O[C@H]([C@@H](O)CO)C(O)=C1O [Ascorbic acid]
- DPPH IC50 [1]: 13.85 µg/mL

SMILES: O=C(O[C@@H]1Cc2c(O)cc(O)cc2O[C@@H]1c1cc(O)c(O)c(O)c1)c1cc(O)c(O)c(O)c1 [Epigallocatechin gallate, reference compound]
- Elastase activity (% of control) [2, 6]: 8%
- IC50 of elastase activity ([2]; porcine pancreatic elastase): 12 µg/mL

SMILES: C[C@@H]1O[C@@H](Oc2c(-c3ccc(O)c(O)c3)oc3cc(O)cc(O)c3c2=O)[C@H](O)[C@H](O)[C@H]1O [FC, quercetin-3-O-rhamnoside]
- IC50 [2]: 192 µM
- remaining activity at 100 µg/mL [2, 6]: 42%
- IC50 [3]: 7.49 µM
- Crossing of the strat-M membrane (detected in receptor medium by HPLC-MS) [4]: have crossed the membrane
- µg of Crossed Molecule/g of 5% Hydro-cream [4]: 3.161 ± 0.006 µg/g of 5% hydro-cream
- Concentration that did not decrease the percentage of cell viability (B16 cells): ≤ 2500 ng/mL
- IC50 [5]: 6.4 ± 0.53 µg/mL (≈ 14.3 µM)
- IC50 of tyrosinase activity (mushroom tyrosinase): 49 µg/mL
- Tyrosinase activity (% of control) (mushroom tyrosinase): 9%

SMILES: C[C@@H]1O[C@@H](Oc2c(-c3cc(O)c(O)c(O)c3)oc3cc(O)cc(O)c3c2=O)[C@H](O)[C@H](O)[C@H]1O [FM2, myricetin-3-O-rhamnoside]
- remaining activity at 100 µg/mL [2, 6]: 29%
- IC50 ([2]; porcine pancreatic elastase, read-out: IC50 of elastase activity (converted)): 96.9 µM
- IC50 ([3]; B16 cells, 48 h of samples exposure, read-out: Cellular tyrosinase inhibition IC50 (converted)): 9.91 µM
- Crossing of the strat-M membrane (detected in receptor medium by HPLC-MS) [4]: have crossed the membrane
- µg of Crossed Molecule/g of 5% Hydro-cream [4]: 52.102 ± 0.001 µg/g of 5% hydro-cream
- Concentration that did not decrease the percentage of cell viability (B16 cells): ≤ 10000 ng/mL
- IC50 ([5]; B16 cells): 19.3 ± 1.22 µg/mL (≈ 41.6 µM)
- IC50 of tyrosinase activity (mushroom tyrosinase): 34 µg/mL
- Tyrosinase activity (% of control) (mushroom tyrosinase): 10%

SMILES: O=c1cc(CO)occ1O [kojic acid, reference compound]
- Tyrosinase activity (% of control) (mushroom tyrosinase): 7%

SMILES: O=c1c(O[C@@H]2O[C@H](CO)[C@H](O)[C@H](O)[C@H]2O)c(-c2ccc(O)c(O)c2)oc2cc(O)cc(O)c12 [quercetin-3-O-galactoside]
- Crossing of the strat-M membrane (detected in receptor medium by HPLC-MS) [4]: have crossed the membrane
